Laboratory results taken from ChEMBL document CHEMBL1201862, “PubChem BioAssay data set” (2004).
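Results reflect a 48-hour exposure of cells in 96-well plates to compound at five concentrations. The concentration for 50% growth inhibition is given as GI50.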 The source made the active and inactive calls. No stated cut-off is given here; in the data, active = GI50 up to about 1.1 µM and inactive = higher.

Tests used:
Experiment in all cases: NCI tumour cell line growth inhibition, 48 h
[1] = tested on: NCI-H23
[2] = tested on: U-251
[3] = tested on: A549
[4] = tested on: OVCAR-3
[5] = tested on: BT-549
[6] = tested on: TK-10
[7] = tested on: HOP-62
[8] = tested on: A498
[9] = tested on: SN12C
[10] = tested on: UACC-62
[11] = tested on: HCT-116
[12] = tested on: IGROV-1
[13] = tested on: SK-MEL-28
[14] = tested on: OVCAR-4
[15] = tested on: MDA-MB-231
[16] = tested on: Hs-578T
[17] = tested on: SK-MEL-5
[18] = tested on: SK-OV-3
[19] = tested on: M14
[20] = tested on: SF-268
[21] = tested on: NCI-H460
[22] = tested on: ACHN
[23] = tested on: HCC 2998
[24] = tested on: OVCAR-5
[25] = tested on: COLO 205
[26] = tested on: MOLT-4
[27] = tested on: RPMI-8226
[28] = tested on: EKVX
[29] = tested on: NCI/ADR-RES
[30] = tested on: Malme-3M
[31] = tested on: SK-MEL-2
[32] = tested on: MCF7
[33] = tested on: 786-0
[34] = tested on: DU-145
[35] = tested on: MDA-N
[36] = tested on: SF-295
[37] = tested on: PC-3
[38] = tested on: KM12
[39] = tested on: SNB-19
[40] = tested on: SW-620
[41] = tested on: UACC-257
[42] = tested on: K562
[43] = tested on: NCI-H226
[44] = tested on: SR
[45] = tested on: HCT-15
[46] = tested on: HOP-92
[47] = tested on: CAKI-1
[48] = tested on: SNB-75
[49] = tested on: MDA-MB-435
[50] = tested on: LOX IMVI
[51] = tested on: RXF 393
[52] = tested on: NCI-H522
[53] = tested on: CCRF-CEM
[54] = tested on: UO-31
[55] = tested on: T47D
[56] = tested on: OVCAR-8
[57] = tested on: HT-29
[58] = tested on: HL-60
[59] = tested on: SF-539

SMILES: COc1ccc2c3c1OC1C(F)C=CC4(O)C(C2)NCCC314 (stereo not drawn)
- GI50 [1]: 1.92 µM (inactive)
- GI50 [2]: 2.2 µM (inactive)
- GI50 [3]: 7.23 µM (inactive)
- GI50 [4]: 1.87 µM (inactive)
- GI50 [5]: 1.93 µM (inactive)
- GI50 [6]: 3.51 µM (inactive)
- GI50 [7]: 2.11 µM (inactive)
- GI50 [8]: 4.47 µM (inactive)
- GI50 [9]: 1.98 µM (inactive)
- GI50 [10]: 3.37 µM (inactive)
- GI50 [11]: 1.24 µM (inactive)
- GI50 [12]: 4.81 µM (inactive)
- GI50 [13]: 3.07 µM (inactive)
- GI50 [14]: 1.95 µM (inactive)
- GI50 [15]: 3.27 µM (inactive)
- GI50 [16]: 2.62 µM (inactive)
- GI50 [17]: 3.94 µM (inactive)
- GI50 [18]: 2.92 µM (inactive)
- GI50 [19]: 1.65 µM (inactive)
- GI50 [20]: 2.59 µM (inactive)
- GI50 [21]: 4.97 µM (inactive)
- GI50 [22]: 2.65 µM (inactive)
- GI50 [23]: 3.18 µM (inactive)
- GI50 [24]: 3.2 µM (inactive)
- GI50 [25]: 1.44 µM (inactive)
- GI50 [26]: 0.887 µM (active)
- GI50 [27]: 0.834 µM (active)
- GI50 [28]: 2.49 µM (inactive)
- GI50 [29]: 3.94 µM (inactive)
- GI50 [30]: 1.97 µM (inactive)
- GI50 [31]: 2.38 µM (inactive)
- GI50 [32]: 1.69 µM (inactive)
- GI50 [33]: 1.2 µM (inactive)
- GI50 [34]: 2.82 µM (inactive)
- GI50 [35]: 2.42 µM (inactive)
- GI50 [36]: 9.18 µM (inactive)
- GI50 [37]: 2.07 µM (inactive)
- GI50 [38]: 3.33 µM (inactive)
- GI50 [39]: 1.81 µM (inactive)
- GI50 [40]: 1.37 µM (inactive)
- GI50 [41]: 11.1 µM (inactive)
- GI50 [42]: 0.805 µM (active)
- GI50 [43]: 11.2 µM (inactive)
- GI50 [44]: 0.92 µM (active)
- GI50 [45]: 2.37 µM
- GI50 [46]: 2.87 µM (inactive)
- GI50 [47]: 0.962 µM (active)
- GI50 [48]: 2.06 µM (inactive)
- GI50 [49]: 1.52 µM (inactive)
- GI50 [50]: 2.31 µM (inactive)
- GI50 [51]: 1.62 µM (inactive)
- GI50 [52]: 0.407 µM (active)
- GI50 [53]: 0.348 µM (active)
- GI50 [54]: 1.55 µM (inactive)
- GI50 [55]: 0.753 µM (active)
- GI50 [56]: 1.94 µM (inactive)
- GI50 [57]: 2.54 µM (inactive)

SMILES: CC(=O)O[C@H]1CC[C@@]2(C)C(=CC[C@@H]3[C@@H]2CC[C@](C)(c2nnc(C)o2)[C@H]3CC#N)C1
- GI50 [1]: > 100 µM (inactive)
- GI50 [2]: > 100 µM (inactive)
- GI50 [3]: > 100 µM (inactive)
- GI50 [4]: > 100 µM (inactive)
- GI50 [5]: > 100 µM (inactive)
- GI50 [6]: > 100 µM (inactive)
- GI50 [58]: 61.9 µM (inactive)
- GI50 [7]: > 100 µM (inactive)
- GI50 [8]: > 100 µM (inactive)
- GI50 [9]: > 100 µM (inactive)
- GI50 [10]: > 100 µM (inactive)
- GI50 [11]: > 100 µM (inactive)
- GI50 [59]: > 100 µM (inactive)
- GI50 [12]: > 100 µM (inactive)
- GI50 [14]: > 100 µM (inactive)
- GI50 [15]: > 100 µM (inactive)
- GI50 [16]: 0.0735 µM (active)
- GI50 [17]: > 100 µM (inactive)
- GI50 [18]: > 100 µM (inactive)
- GI50 [19]: > 100 µM (inactive)
- GI50 [20]: > 100 µM (inactive)
- GI50 [22]: > 100 µM (inactive)
- GI50 [24]: > 100 µM (inactive)
- GI50 [25]: > 100 µM (inactive)
- GI50 [26]: > 100 µM (inactive)
- GI50 [27]: > 100 µM (inactive)
- GI50 [28]: > 100 µM (inactive)
- GI50 [29]: > 100 µM (inactive)
- GI50 [30]: > 100 µM (inactive)
- GI50 [31]: > 100 µM (inactive)
- GI50 [32]: > 100 µM (inactive)
- GI50 [33]: > 100 µM (inactive)
- GI50 [34]: > 100 µM (inactive)
- GI50 [35]: > 100 µM (inactive)
- GI50 [36]: > 100 µM (inactive)
- GI50 [37]: > 100 µM (inactive)
- GI50 [38]: > 100 µM (inactive)
- GI50 [39]: > 100 µM (inactive)
- GI50 [40]: > 100 µM (inactive)
- GI50 [41]: > 100 µM (inactive)
- GI50 [42]: > 100 µM (inactive)
- GI50 [43]: > 100 µM (inactive)
- GI50 [44]: > 100 µM (inactive)
- GI50 [45]: > 100 µM
- GI50 [46]: > 100 µM (inactive)
- GI50 [47]: > 100 µM (inactive)
- GI50 [48]: 51.6 µM (inactive)
- GI50 [49]: > 100 µM (inactive)
- GI50 [50]: > 100 µM (inactive)
- GI50 [51]: > 100 µM (inactive)
- GI50 [52]: > 100 µM (inactive)
- GI50 [53]: > 100 µM (inactive)
- GI50 [54]: > 100 µM (inactive)
- GI50 [55]: > 100 µM (inactive)
- GI50 [56]: > 100 µM (inactive)
- GI50 [57]: > 100 µM (inactive)
